# Experimental data from patent US20030162778A1, “Carbocyclic side chain containing metalloprotease inhibitors” (The Procter and Gamble Company, priority 2000, published 2003).
# Assays:
# [1] = system: patient having deep corneal abrasion; assay: Example C: saline-based drops for a patient having deep corneal abrasion; assay type: in vivo, human; conditions: 5% w/w drop to each eye twice a day
# Excerpt: A saline-based composition for local administration, according to the present invention, is made comprising:
# A patient having deep corneal abrasion applies the drop to each eye twice a day.
# [2] = system: human subject suffering from osteoarthritis; assay: Example B: capsule given to a human subject suffering from osteoarthritis; assay type: in vivo; conditions: capsule containing 70 mg daily for 5 years, 90 kg person
# Method: A capsule for oral administration, according to the present invention, is made comprising:
# A human subject weighing 90 kg (198 lbs.), suffering from osteoarthritis, is treated by a method of this invention. Specifically, for 5 years, a capsule containing 70 mg of the compound of Example 3 is administered daily to said subject.
# [3] = system: patient suffering from chemical burns; assay: Example D: topical composition for a patient suffering from chemical burns; assay type: in vivo, human; conditions: 0.20% w/v topical composition at each dressing change (b.i.d.)
# Excerpt: A topical composition for local administration, according to the present invention, is made comprising:
# A patient suffering from chemical burns applies the composition at each dressing change (b.i.d.).
# [4] = system: human subject with a premetastatic tumor; assay: Example G: parenteral suspension injected next to a premetastatic tumor; assay type: in vivo; conditions: about 2.0 mL of 100 mg/mL suspension injected beside the tumor twice daily; after 30 days
# Method: A composition for parenteral administration is made comprising:
# The above ingredients are mixed, forming a suspension. Approximately 2.0 mL of the suspension is administered, via injection, to a human subject with a premetastatic tumor. The injection site juxtaposes the tumor. This dosage is repeated twice daily, for approximately 30 days.
# [5] = system: human subject suffering from rheumatoid arthritis; assay: Example A: tablet given to a human subject suffering from rheumatoid arthritis; assay type: in vivo; conditions: three tablets (15 mg compound each) per day orally for 2 years, 60 kg person
# Method: A tablet composition for oral administration, according to the present invention, is made comprising:
# A human subject weighing 60 kg (132 lbs), suffering from rheumatoid arthritis, is treated by a method of this invention. Specifically, for 2 years, a regimen of three tablets per day is administered orally to said subject.
# asthma sufferer = assay: Example E: inhalation aerosol for an asthma sufferer; assay type: in vivo, human; conditions: 5.0% w/v aerosol, 0.01 mL sprayed into the mouth while inhaling
# Method: An inhalation aerosol composition, according to the present invention, is made comprising: [table] An asthma sufferer sprays 0.01 mL via a pump actuator into the mouth while inhaling. Asthma symptoms are diminished.
smiles,measurement,setting,value
"COc1ccc(-c2ccc(S(=O)(=O)NC(C(=O)O)C3CCC(O)CC3)cc2)cc1 (centres unmarked) [Example 1, N-{[4′-Methoxy-(1,1′-biphenyl)-4-yl]-sulfonylamino}-(4-hydroxycyclohexan-1-yl)-acetic Acid]",healing of deep corneal abrasion,[1],speeded
same,visual sequelae,[1],no visual sequelae
"O=C(O)[C@H](NS(=O)(=O)c1ccc(-c2ccc(Br)cc2)cc1)C1CCC2(CC1)OCCCO2 [Example 3, (R)-N-{[4′-bromo-(1,1′-biphenyl)-4-yl]-sulfonyl}-amino-(1,5-dioxa-spiro[5.5]undec-9-yl)-acetic]","advancement of erosion/fibrillation of the articular cartilage (x-ray, arthroscopy and/or MRI)",[2],no further advancement
same,scarring,[3],substantially diminished
"COc1ccc(-c2ccc(S(=O)(=O)NC(C(=O)O)C3CCCC(N(Cc4ccccc4)S(C)(=O)=O)C3)cc2)cc1 (centres unmarked) [Example 31, N-{[4′-methoxy-(1,1′-biphenyl)-4-yl]-sulfonyl}-amino-[3-(N-benzyl-N-methanesulfonylamino)-cyclohexan-1-yl]-acetic acid]",symptoms of the disease,[4],subside
same,inflammation at the end of the treatment period,[5],reduced inflammation
same,mobility at the end of the treatment period,[5],improved mobility without concomitant pain
"COc1ccc(-c2ccc(S(=O)(=O)NC(C(=O)O)C3CCCC(N(C)C(C)=O)C3)cc2)cc1 (centres unmarked) [Example 33, N-{[4′-methoxy-(1,1-biphenyl)-4-yl]-sulfonyl}-amino-[3-(N-methyl-N-acetylamino)-cyclohexan-1-yl]-acetic Acid]",asthma symptoms,asthma sufferer,diminished
